The values that follow come from ChEMBL document CHEMBL5653631, “A Potent and Selective ULK1 Inhibitor Suppresses Autophagy and Sensitizes Cancer Cells to Nutrient Stress” (iScience, 2018).

The target of assay [1] is T1, Serine/threonine-protein kinase TAO2 (Homo sapiens) (UniProt Q9UL54).
T1 sequence (whole entry): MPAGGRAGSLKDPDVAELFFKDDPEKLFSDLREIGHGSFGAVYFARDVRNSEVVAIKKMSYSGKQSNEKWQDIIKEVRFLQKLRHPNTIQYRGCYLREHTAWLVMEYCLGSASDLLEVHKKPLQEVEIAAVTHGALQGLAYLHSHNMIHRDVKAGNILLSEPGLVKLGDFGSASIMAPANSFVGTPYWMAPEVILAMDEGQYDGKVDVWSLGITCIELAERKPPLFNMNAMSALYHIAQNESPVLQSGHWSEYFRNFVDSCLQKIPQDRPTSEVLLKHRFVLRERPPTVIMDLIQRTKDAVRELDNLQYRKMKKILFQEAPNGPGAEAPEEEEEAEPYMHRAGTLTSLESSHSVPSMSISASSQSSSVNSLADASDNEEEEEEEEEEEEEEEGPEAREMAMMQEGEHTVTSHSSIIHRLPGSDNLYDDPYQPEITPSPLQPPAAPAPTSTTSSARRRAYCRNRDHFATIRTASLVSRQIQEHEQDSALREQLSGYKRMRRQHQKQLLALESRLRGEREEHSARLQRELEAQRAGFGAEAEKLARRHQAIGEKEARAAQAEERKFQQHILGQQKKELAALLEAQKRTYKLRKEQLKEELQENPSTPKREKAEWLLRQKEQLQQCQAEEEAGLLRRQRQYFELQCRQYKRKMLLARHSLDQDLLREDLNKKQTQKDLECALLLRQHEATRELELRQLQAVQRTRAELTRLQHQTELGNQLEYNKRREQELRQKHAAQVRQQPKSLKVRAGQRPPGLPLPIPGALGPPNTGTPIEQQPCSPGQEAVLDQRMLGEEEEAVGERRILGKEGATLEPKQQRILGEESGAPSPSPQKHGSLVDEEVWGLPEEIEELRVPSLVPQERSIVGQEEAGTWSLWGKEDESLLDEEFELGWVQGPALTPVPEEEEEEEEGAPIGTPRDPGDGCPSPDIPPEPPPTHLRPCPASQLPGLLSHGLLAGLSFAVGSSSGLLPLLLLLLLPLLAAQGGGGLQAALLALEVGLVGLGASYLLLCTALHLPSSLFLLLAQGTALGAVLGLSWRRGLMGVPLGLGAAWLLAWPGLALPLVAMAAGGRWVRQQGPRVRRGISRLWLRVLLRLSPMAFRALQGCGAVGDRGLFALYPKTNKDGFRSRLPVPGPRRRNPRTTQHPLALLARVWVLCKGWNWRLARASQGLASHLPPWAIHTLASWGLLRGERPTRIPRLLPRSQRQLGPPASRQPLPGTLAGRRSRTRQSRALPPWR
The experiment in a line: Inhibition of human recombinant TAO2 at 40 nM in presence of ATP by radiometric assay relative to control.

Assay [2] concerns the target T2, Serine/threonine-protein kinase ULK3 (Homo sapiens) (UniProt Q6PHR2).
T2 sequence (whole entry): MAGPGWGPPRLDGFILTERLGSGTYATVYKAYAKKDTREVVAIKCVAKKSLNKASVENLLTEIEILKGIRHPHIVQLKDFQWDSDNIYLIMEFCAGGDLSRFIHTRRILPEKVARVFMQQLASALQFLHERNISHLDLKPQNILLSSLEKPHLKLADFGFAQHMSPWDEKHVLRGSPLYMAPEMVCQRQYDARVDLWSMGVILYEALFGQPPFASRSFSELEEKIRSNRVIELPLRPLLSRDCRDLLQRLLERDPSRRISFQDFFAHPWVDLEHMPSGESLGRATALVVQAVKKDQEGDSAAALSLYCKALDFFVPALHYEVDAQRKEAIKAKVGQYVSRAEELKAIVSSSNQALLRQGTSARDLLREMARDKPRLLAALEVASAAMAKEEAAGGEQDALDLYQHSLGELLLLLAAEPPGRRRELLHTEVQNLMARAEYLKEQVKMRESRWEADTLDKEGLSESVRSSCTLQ
The experiment in a line: Inhibition of human recombinant ULK3 at 40 nM in presence of ATP by radiometric assay relative to control.

The target in assay [3] is T3, Testis-specific serine/threonine-protein kinase 4 (Homo sapiens) (UniProt Q6SA08).
T3 sequence (whole entry): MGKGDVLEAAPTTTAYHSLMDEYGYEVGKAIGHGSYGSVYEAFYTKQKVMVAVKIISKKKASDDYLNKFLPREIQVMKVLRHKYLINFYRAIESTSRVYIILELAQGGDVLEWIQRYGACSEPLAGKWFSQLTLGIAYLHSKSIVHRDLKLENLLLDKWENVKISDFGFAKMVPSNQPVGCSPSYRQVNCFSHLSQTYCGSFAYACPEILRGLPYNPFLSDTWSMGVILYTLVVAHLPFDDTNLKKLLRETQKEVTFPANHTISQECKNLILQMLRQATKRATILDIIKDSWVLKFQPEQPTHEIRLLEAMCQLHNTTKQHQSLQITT
The experiment in a line: Inhibition of human recombinant TSSK4 at 500 nM related to control ULK1.

Usually inhibition stands for the percentage by which the read-out fell short of the control.

For `O=C(N[C@@H](C1CC1)C(F)(F)F)c1cc(-c2cnn3cc(-c4ccc(F)cc4)cnc23)cs1`, the inhibition in assay [1] is 3%; in assay [2], 5%. On to `CNC(=O)c1ccccc1Oc1nc(Nc2cc(OC)c(OC)c(OC)c2)ncc1Br`, for which the fold change (FC) in assay [3] worked out at 0.
